No end group written: not given here.
How the values were obtained:
[1] = tested on: MCF-7 human breast cancer cells; experiment: MTT assay, anticancer activity; assay type: cell-based; conditions: 37 °C; for MCF-7 4 h LD50: 4 h of incubation; for MCF-7 24 h LD50: 24 h of incubation
Description: The anticancer activity assays were performed using MCF-10A human breast epithelial cells and MCF-7 mammary cancer cells as previously described by Pedron et al.[78]. Briefly, the day before treatment, the cells were incubated at 37 °C and 5% CO2 for 24 h. The cells were treated with peptides ranging from 12.5 to 100 μmol L^−1 (MCF10-A cells) and 0.8 to 100 μmol L^−1 (MCF-7 cells) for 4 h and 24 h at 37 °C, and cell viability was measured using 3-(4,5-Dimethylthiazol-2-yl)-2,5-diphenyltetrazolium bromide (MTT) assays[79],[80]. Three independent replicates were performed in each case.

[2] = tested on: Pseudomonas aeruginosa PAO1; experiment: Broth microdilution MIC, ESKAPE pathogens; assay type: cell-based; conditions: strain not given (PAO1 and PA14 tested), LB, 37 °C, 24 h
Description: Peptides were tested in antimicrobial assays against Serratia marcescens ATCC 4112, Enterobacter cloacae β-12, Micrococcus luteus A270, Bacillus megaterium ATCC 10778, Bacillus subtilis ATCC 6633, Candida albicans MDM8, Candida tropicalis IOC 4560, Acinetobacter baumannii ATCC 19606, Escherichia coli ATCC 11775, Escherichia coli AIC221, Escherichia coli AIC222, Klebsiella pneumoniae ATCC 13883, Staphylococcus aureus ATCC 12600, Pseudomonas aeruginosa PAO1, and Pseudomonas aeruginosa PA14. All microorganisms were obtained from the American Type Culture Collection (ATCC), Instituto Butantan, São Paulo, Brazil, and the clinical isolate strains were donated from the Oswaldo Cruz Institute Collection (IOC), Rio de Janeiro, Brazil.
The minimal inhibitory concentration (MIC) against the ESKAPE pathogens was determined using the broth microdilution method[7] in Luria-Bertani (LB) medium. The MIC value was defined as the lowest concentration of peptide at which no microbial growth was observed. A. baumannii ATCC 19606, E. coli ATCC 11775, E. coli AIC221, E. coli AIC222, K. pneumoniae ATCC 13883, S. aureus ATCC 12600 P. aeruginosa PAO1, and P. aeruginosa PA14 were incubated on agar plates, and after 24 h, three isolated colonies were inoculated to 5 mL of Luria-Bertani (LB) broth and maintained at 37 °C overnight with shaking. Peptides were then added to 96-well polystyrene microtiter plates at concentrations ranging from 0 to 128 μmol L^−1, and 5 × 10^5 CFU mL^−1 of each bacterium was inoculated in each well. The plates were incubated at 37 °C for 24 h. Bacterial growth was measured using a microplate reader at 610 nm. Three independent replicates were performed.

[3] = Resistance to proteolytic degradation in fetal bovine serum; assay type: in vitro ADME; conditions: 25% fetal bovine serum in water, 37 °C
Description: Stability assays were performed following the protocol described by Torres et al.[67]. Briefly, a peptide solution was added to GIBCO fetal bovine serum diluted to 25% in water and kept at 37 °C. The degradation kinetics were monitored by liquid chromatography and the percentage of peptide remaining in each case was calculated by integrating the peptide peak area. These experiments were performed as three independent replicates, and aliquots were taken at 0, 0.5, 1, 2, 4, and 6 h.

human erythrocytes = experiment: Hemolytic activity; assay type: cell-based; conditions: 0.1–100 μmol L^−1 in PBS, room temperature, 1 h, absorbance 405 nm
Description: Assays against freshly collected human erythrocytes were performed following protocols described by Pedron et al.[54]. Briefly, peptide aliquots at concentrations ranging from 0.1 to 100 μmol L^−1 were incubated with a suspension of erythrocytes at room temperature for 1 h. The samples were then centrifuged, and the absorbance of the supernatant was measured at 405 nm. […] The surfactant SDS and PBS buffer were used as positive[81],[82] and negative controls, respectively. Sodium heparin was used as an anticoagulant when collecting human blood. Three biological repeats were performed. All experiments were performed in accordance with the protocol CEUA/IB #I-1345/15 approved by the Instituto Butantan.

[4] = Mouse body weight in the skin abscess infection model; assay type: in vivo
Description: The anti-infective activity of the peptides VmCT1, temporin A, VT, and TV against A. baumannii ATCC 19606 was evaluated as described by Torres et al.[7],[83] Bacteria were grown in tryptic soy broth medium to an optical density of 0.5 at 600 nm. Cells were washed twice with sterile phosphate-buffered saline (pH 7.4, 13,000 rpm for 1 min) and resuspended to a final concentration of 1 × 10^7 CFU/20 μL. To generate the skin infection, female CD-1 mice (6-weeks-old) were first anesthetized with isoflurane and their backs were shaved. Using a needle, a superficial linear abrasion was made on the shaved area of the mice to injure just the stratum corneum and the upper layer of the epidermis. An aliquot of 20 μL containing 1 × 10^7 CFU of A. baumannii was then inoculated over the wound area with a pipette tip. The next day, the infected area was treated with the peptides (i.e., VmCT1, temporin A, VT, and TV), which were administered onto the abscess at their MIC. The animals were euthanized, and the scarified skin area removed 2- and 4-days post-infection. The excised area was homogenized using a bead beater for 20 min (25 Hz) and serially diluted for CFU quantification. Eight mice were used per group (n = 8). All experiments were performed in accordance with protocol 806763 approved by the IACUC at the University of Pennsylvania.

[5] = LC peak area, time 0 = 100, 0.5 h, replicate 1
[6] = LC peak area, time 0 = 100, 0.5 h, replicate 2
[7] = LC peak area, time 0 = 100, 0.5 h, replicate 3
[8] = LC peak area, time 0 = 100, 1 h, replicate 2
[9] = LC peak area, time 0 = 100, 1 h, replicate 3
[10] = LC peak area, time 0 = 100, 2 h, replicate 1
[11] = LC peak area, time 0 = 100, 2 h, replicate 2
[12] = LC peak area, time 0 = 100, 2 h, replicate 3
[13] = LC peak area, time 0 = 100, 4 h, replicate 1
[14] = LC peak area, time 0 = 100, 4 h, replicate 2
[15] = LC peak area, time 0 = 100, 4 h, replicate 3
[16] = LC peak area, time 0 = 100, 6 h, replicate 1
[17] = LC peak area, time 0 = 100, 6 h, replicate 2
[18] = LC peak area, time 0 = 100, 6 h, replicate 3
[19] = LC peak area, time 0 = 100, 1 h, replicate 1

Substance	MCF-7 4 h LD50 [1] [µmol/L]	MCF-7 24 h LD50 [1] [µmol/L]	MIC against P. aeruginosa [2] [µM]	Peptide remaining [3, 5]	Peptide remaining [3, 6]	Peptide remaining [3, 7]	Peptide remaining [3, 8]	Peptide remaining [3, 9]	Peptide remaining [3, 10]	Peptide remaining [3, 11]	Peptide remaining [3, 12]	Peptide remaining [3, 13]	Peptide remaining [3, 14]	Peptide remaining [3, 15]	Peptide remaining [3, 16]	Peptide remaining [3, 17]	Peptide remaining [3, 18]	Hemolytic activity (concentration of peptide needed to kill 10% of red blood cells) (human erythrocytes) [µmol/L]	Peptide remaining [3, 19]	further results
ILGTILGLLKGL-NH2 [Protonectin, reference compound]	25	25	128	0.0	0.0	0.0	0.0	0.0	0.0	0.0	0.0	0.0	0.0	0.0	0.0	0.0	0.0	12.5		Degradation in fetal bovine serum (in words) ([3]; exposure for 6 h, LC): quickly degraded; remaining at 1 h ([3]; fetal bovine serum, 25% in water, LC peak area, time 0 = 100, 1 h, replicate 1, read-out: Peptide remaining): 0%
FLPLIGRVLSGIL-NH2 [Temporin A, reference compound]	50	50		0	0		0	0	0	0	0	0	0	0	0	0	0	0.2	0	Peptide remaining after 30 min ([3]; LC peak area vs time 0, 30 min, three replicates): totally degraded; remaining at 0.5 h ([3]; fetal bovine serum, 25% in water, LC peak area, time 0 = 100, 0.5 h, replicate 3, read-out: Peptide remaining): 0%; Mouse body weight, normalized to the weight at the beginning of the experiment ([4]; day 0 = 100, Day 1, replicate 1): 95; Mouse body weight, normalized to the weight at the beginning of the experiment ([4]; day 0 = 100, Day 1, replicate 2): 105; Mouse body weight, normalized to the weight at the beginning of the experiment ([4]; day 0 = 100, Day 1, replicate 3): 100; Mouse body weight, normalized to the weight at the beginning of the experiment ([4]; day 0 = 100, Day 2, replicate 1): 95; Mouse body weight, normalized to the weight at the beginning of the experiment ([4]; day 0 = 100, Day 2, replicate 2): 100; Mouse body weight, normalized to the weight at the beginning of the experiment ([4]; day 0 = 100, Day 2, replicate 3): 100; Mouse body weight, normalized to the weight at the beginning of the experiment ([4]; day 0 = 100, Day 3, replicate 1): 95; Mouse body weight, normalized to the weight at the beginning of the experiment ([4]; day 0 = 100, Day 3, replicate 2): 100; Mouse body weight, normalized to the weight at the beginning of the experiment ([4]; day 0 = 100, Day 3, replicate 3): 95; Mouse body weight, normalized to the weight at the beginning of the experiment ([4]; day 0 = 100, Day 4, replicate 1): 95; Mouse body weight, normalized to the weight at the beginning of the experiment ([4]; day 0 = 100, Day 4, replicate 2): 100; Mouse body weight, normalized to the weight at the beginning of the experiment ([4]; day 0 = 100, Day 4, replicate 3): 95
ILGAILNVLKSLG-NH2 [PV]			128	98	85	88	0	0	0	0	0	0	0	0	0	0	0	25	0	Peptide remaining after 1 h ([3]; LC peak area vs time 0, 1 h, three replicates): totally degraded
FLGTLWGGAKGVF-NH2 [VP]			128	24.2	22.1	20.2	16.0	11.8	3.6	3.6	4.4	0.0	0.0	0.0	0.0	0.0	0.0	100	14.7	
